Active and inactive are the calls of the source.
Key:
[1] = luciferase reporter signal suppression in cells – H4 neuroglioma cells, luminescence, dose response (AID 1990); type: functional, cell-based
BJ [2] = assay: BJ-TERT fibroblast viability loss – cell-based, RAS-independent, luminescence, dose response (AID 1933); type: functional; conditions: Homo sapiens
[3] = Luminescence Cell-Based Dose Response HTS to Identify Inhibitors of 5'UTR Stem-Loop Driven Prion Protein mRNA Translation in H4 Neuroglioblastoma Cells. [Related pubchem assays: 1827 (Project Summary), 1813 (Primary HTS)]; type: functional
[4] = alpha-synuclein stem-loop luciferase translation blockers – H4 neuroglioma cells, luminescence, confirmation (AID 1988); type: functional, cell-based
BJ [5] = assay: cells; type: functional, cell-based; conditions: Homo sapiens
BJ [6] = assay: BJ-TERT-LT-ST fibroblast viability loss – cell-based, RAS-independent, luminescence, dose response (AID 1935); type: functional; conditions: Homo sapiens;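 note: BJ fibroblasts immortalized with TERT plus LT and ST oncogenes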
[7] = DRD fibroblast viability loss – cell-based, non-viral oncogenic, luminescence, dose response (AID 1934); type: functional; conditions: Homo sapiens
BJ [8] = assay: growth inhibition of engineered Ras-driven BJ cells – cell-based, alamar blue fluorescence, cherrypicked samples, dose response (AID 2631); type: functional; conditions: Homo sapiens;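 note: confirmatory dose-response assay in RAS-dependent BJ fibroblasts engineered with TERT, LT and ST, with cytotoxicity read by fluorescence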
HEK293 = assay: HEK293T cell viability loss, resazurin readout – resazurin fluorescence, cytotoxicity control for NF-kB activator project, SAR follow-up (AID 493251); type: functional, cell-based; conditions: Homo sapiens
[9] = biological target: Cell division cycle 7-related protein kinase (Homo sapiens, UniProt O00311); type: functional;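 note: value obtained from a kinome-wide kinase panel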
Sequence of Cell division cycle 7-related protein kinase (O00311 whole entry): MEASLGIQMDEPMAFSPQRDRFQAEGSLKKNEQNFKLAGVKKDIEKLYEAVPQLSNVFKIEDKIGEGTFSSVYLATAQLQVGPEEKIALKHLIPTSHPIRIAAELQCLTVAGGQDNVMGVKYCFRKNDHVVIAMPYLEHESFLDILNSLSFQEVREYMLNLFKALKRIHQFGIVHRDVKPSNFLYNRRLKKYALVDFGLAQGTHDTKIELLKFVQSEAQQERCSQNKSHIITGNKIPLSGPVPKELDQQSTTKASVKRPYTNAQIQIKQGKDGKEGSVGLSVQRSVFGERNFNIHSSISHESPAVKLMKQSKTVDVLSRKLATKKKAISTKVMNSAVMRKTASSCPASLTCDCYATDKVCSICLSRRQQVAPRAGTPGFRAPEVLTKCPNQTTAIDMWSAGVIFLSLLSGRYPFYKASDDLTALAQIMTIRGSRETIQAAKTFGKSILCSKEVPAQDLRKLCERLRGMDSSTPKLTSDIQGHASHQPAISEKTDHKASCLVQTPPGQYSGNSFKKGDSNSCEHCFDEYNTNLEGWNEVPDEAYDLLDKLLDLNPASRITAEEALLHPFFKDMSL

[10] = biological target: Cyclin-dependent kinase 7 (Homo sapiens, UniProt P50613); type: functional;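 note: value comes from a kinome-wide kinase profiling panel in which CDK7 is one member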
Sequence of Cyclin-dependent kinase 7 (P50613 whole entry): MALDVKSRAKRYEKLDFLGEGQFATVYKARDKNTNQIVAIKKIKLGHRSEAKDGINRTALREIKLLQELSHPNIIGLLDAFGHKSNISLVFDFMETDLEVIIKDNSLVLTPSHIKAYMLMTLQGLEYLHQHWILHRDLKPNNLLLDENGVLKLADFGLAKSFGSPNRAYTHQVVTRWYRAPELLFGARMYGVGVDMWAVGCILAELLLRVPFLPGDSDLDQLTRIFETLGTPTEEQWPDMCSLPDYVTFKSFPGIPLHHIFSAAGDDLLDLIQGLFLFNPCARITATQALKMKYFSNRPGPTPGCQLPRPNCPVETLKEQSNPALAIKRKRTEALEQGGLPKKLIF

[11] = biological target: Cyclin-dependent kinase 9 (Homo sapiens, UniProt P50750); type: functional;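 note: value from the CDK9 entry of a kinome-spanning kinase panel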
Sequence of Cyclin-dependent kinase 9 (P50750 whole entry): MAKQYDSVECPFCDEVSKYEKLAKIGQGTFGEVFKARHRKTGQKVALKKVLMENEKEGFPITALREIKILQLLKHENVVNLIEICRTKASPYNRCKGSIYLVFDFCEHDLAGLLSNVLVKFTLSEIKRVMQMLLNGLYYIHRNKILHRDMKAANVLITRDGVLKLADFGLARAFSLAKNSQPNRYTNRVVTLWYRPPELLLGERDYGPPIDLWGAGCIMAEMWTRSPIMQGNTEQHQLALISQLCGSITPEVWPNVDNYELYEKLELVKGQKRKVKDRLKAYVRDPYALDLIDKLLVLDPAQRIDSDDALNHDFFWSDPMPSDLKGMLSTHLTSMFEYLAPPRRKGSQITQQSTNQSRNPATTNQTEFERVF

[12] = THP-1 cell cytotoxicity, cytotoxicity control, set 4 (AID 504911); type: functional; conditions: Mycobacterium tuberculosis
[13] = biological target: Glucose-6-phosphate 1-dehydrogenase (Homo sapiens, UniProt P11413); assay: inhibition of Homo sapiens G6PD, dose series – biochemical, fluorescence, selectivity assay for P. falciparum G6PD inhibitor project, dose response (AID 504792); type: functional
Sequence of Glucose-6-phosphate 1-dehydrogenase (P11413 whole entry): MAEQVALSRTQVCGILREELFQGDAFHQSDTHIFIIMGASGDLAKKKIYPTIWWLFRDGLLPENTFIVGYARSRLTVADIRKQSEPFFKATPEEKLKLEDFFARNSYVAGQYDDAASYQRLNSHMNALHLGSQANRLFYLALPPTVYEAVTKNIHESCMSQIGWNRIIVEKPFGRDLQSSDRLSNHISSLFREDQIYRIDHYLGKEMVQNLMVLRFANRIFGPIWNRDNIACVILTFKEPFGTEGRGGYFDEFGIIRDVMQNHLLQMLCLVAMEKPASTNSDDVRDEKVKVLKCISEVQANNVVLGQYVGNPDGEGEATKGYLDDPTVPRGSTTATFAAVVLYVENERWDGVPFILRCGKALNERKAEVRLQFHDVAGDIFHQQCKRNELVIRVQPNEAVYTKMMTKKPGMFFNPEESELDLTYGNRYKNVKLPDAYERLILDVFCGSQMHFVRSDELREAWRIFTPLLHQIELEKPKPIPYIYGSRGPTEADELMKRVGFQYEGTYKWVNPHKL

[14] = biological target: T1, Sentrin-specific protease 8 (Homo sapiens, UniProt Q96LD8); type: functional
T1 sequence (Q96LD8 whole entry): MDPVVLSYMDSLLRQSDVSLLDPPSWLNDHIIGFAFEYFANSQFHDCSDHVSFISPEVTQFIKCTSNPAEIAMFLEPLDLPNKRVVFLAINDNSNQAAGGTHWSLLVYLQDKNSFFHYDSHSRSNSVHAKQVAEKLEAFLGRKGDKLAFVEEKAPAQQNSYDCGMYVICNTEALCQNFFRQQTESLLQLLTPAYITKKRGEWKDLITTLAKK

[15] = biological target: T1, Sentrin-specific protease 8; type: functional; remark: listed apart in the source

SMILES	EC50 [1]	EC50 (BJ [2])	EC50 [3]	EC50 [4]	EC50 (BJ [5])	EC50 (BJ [6])	EC50 [7]	EC50 (BJ [8])	also measured
N#CC1=C(N)Oc2cc(N)ccc2C1c1cccc(Br)c1 (centres undefined)	1830 nM (active)	1200 nM (active)	502 nM (active)	180 nM (active)	702 nM (active)	859 nM (inconclusive)	658 nM (active)	182 nM (active)	
COC(=O)CCc1nc(-c2ccc(C(C)(C)C)cc2)no1									IC50 (HEK293): > 80000 nM (inactive)
NC(=O)c1ccc(-c2ccncc2)cc1N1CCCC1									Ki [9]: 126 nM (active); Ki [10]: > 2510 nM (inactive); Ki [11]: 1000 nM (active)
O=C(CSc1ncccn1)NC1CCCCC1									CC50 [12]: > 100000 nM (active)
Cc1ccc(Nc2cc(C)c(O)c(C)c2)cc1									IC50 [13]: 40000 nM (inactive); IC50 [14]: 23700 nM (active); IC50 [15]: 13900 nM (active)
Cc1cc2nc(/C=C/c3cccnc3)[nH]c2cc1C	336 nM (inconclusive)	553 nM (inconclusive)	318 nM (active)	154 nM (active)	1890 nM (inconclusive)	15100 nM (inconclusive)	1420 nM (inconclusive)	< 104 nM (active)	

Reference: ChEMBL document CHEMBL1201862, “PubChem BioAssay data set” (2004)
